Data reported in patent US11465995B2, “Crystal and salt forms of tricyclic compound and preparation process thereof” (SHIJIAZHUANG SAGACITY NEW DRUG DEVELOPMENT COMPANY, LTD., priority 2018, dated 2022).
Values belong to the compound of their own block, whether it stands above or below them.

Assays:
[1] = Stability test of Crystal Form A solid (accelerated, 40° C./75% humidity, open); type: physicochemical
Protocol: Crystal Form A was placed in an opening container with constant temperature and humidity for accelerated test, under the conditions of 40° C./75% humidity (open). Samples were taken at 1st, 2nd, 3rd month for testing, and the test results were compared with initial results of day 0.

[2] = Pharmacokinetic evaluation in SD rats; type: in vivo; conditions: Sprague Dawley, rat, plasma, 3 mg/kg, male, intravenous injection and oral administration, Ozanimod at 3 mpk
Protocol: This Example is provided to test pharmacokinetics of compounds in SD rats.
Materials: Sprague Dawley rats (male, 200-300 g, 7-9 weeks, Shanghai SLAC)
Procedures: The rodent pharmacokinetic characteristics of the compound after intravenous injection and oral administration were tested according to standard protocol. In the test, the candidate compound was formulated as a clear solution, and the rats were given a single intravenous injection and oral administration. The intravenous and oral vehicles were a hydroxypropyl β cyclodextrin aqueous solution in a certain proportion or normal saline solution. The whole blood sample within 24 h was collected, centrifuged at 3000 g for 15 min, and the supernatant was separated to give the plasma sample. 4 volumes of acetonitrile solution containing internal standard was added to precipitate protein and after centrifugation the supernatant was collected and added with equal volume of water. After further centrifugation, the supernatant was used for injection. Quantitative analysis of blood drug concentration was done by LC-MS/MS analysis method and pharmacokinetic parameters were calculated, such as Cmax, Tmax, clearance, half-life, area under the curve of drug concentration-time, bioavailability, etc.

blood lymphocytes = assay: Effects of single oral administration on blood lymphocytes in rats; type: in vivo, SD rats; conditions: 1.0 mg/kg single oral; for Percentage of lymphocytes in white blood cells in a unit volume of blood (%) / Rate of change of lymphocytes in blood after administration (%): mean ± SEM
Protocol: Normal SPF grade male SD rats were administered by single oral gavage. The experiment contained five groups: the vehicle control group, the reference compound Ozanimod group, Compound 1-0.3 mg/kg dose group, Compound 1-1.0 mg/kg dose group, Compound 1-3 mg/kg dose group. Blood was collected 0.5 h before administration and 4, 8, 24 h after administration, and anticoagulated with 10% K2-EDTA. The anticoagulated blood sample was placed in 4° C. environment, diluted 1:4 with normal saline, and quickly tested with a hematology analyzer to calculate the number of lymphocytes per liter of blood and the percentage in the total white blood cells. Graphpad prism 6.0 software was used to calculate the mean±standard error, and the two-way ANOVA test was used to test the significance of the difference. When p<0.05, there was a significant difference between two groups.

[3] = test system: TNBS-induced acute infectious bowel disease (IBD) model; assay: Pharmacodynamic test on TNBS-induced acute infectious bowel disease (IBD) model in female SD rats; type: in vivo; design: Ulcer score / Inflammation score / Total injury score: scale not given here; conditions: mean ± sem; for Inflammation score / Total injury score / Ulcer score: colon pathological test
Protocol: Female SD rats were divided into 7 groups, that is, model group, prednisolone-10 mg/kg group, Ozanimod-0.3 mg/kg group, Ozanimod-1.0 mg/kg group, Compound 1-0.1 mg/kg group, Compound 1-0.3 mg/kg group, Compound 1-0.6 mg/kg group. All animals were deeply anesthetized with pentobarbital sodium, and TNBS-50% alcohol solution was inserted into the intestinal cavity from the anus for modeling. The animal's anus was squeezed, and the animal was allowed to stand upside down for 5 min. The animals were returned to the cage after assured to be leak free.
The test compounds were administered orally 1 h after modeling, once a day for 7 days. The model group was given an equal volume of drug vehicle. The animals were weighed daily before administration of the test compound and were monitored for daily fecal traits and given clinical observation scores. The day after the last administration, all animals were euthanized. The colons were collected (anal to nodular part), the length and weight of the colons were measured, and the gross anatomical scores of the lesion sizes was taken. The gross anatomical images of the colon lesions were recorded, and the tissues were fixed in 10% neutral formalin solution and were subjected to histopathological analysis.

[4] = 40° C./75% humidity (Open), 1 month
[5] = 40° C./75% humidity (Open), 2 months
[6] = 40° C./75% humidity (Open), 3 months
[7] = 0.3 mg/kg oral once a day for 7 days
[8] = 1.0 mg/kg oral once a day for 7 days

Appearance [1, 4]: White powder
Content (%) [1, 4]: 101.4%
Total Impurity (%) [1, 4]: 0.31%
Appearance [1, 5]: White powder
Content (%) [1, 5]: 98.8%
Total Impurity (%) [1, 5]: 0.34%
Appearance [1, 6]: White powder
Content (%) [1, 6]: 101.8%
Total Impurity (%) [1, 6]: 0.32%
amount of total impurity (change over the test) ([1]; 40° C./75% humidity (open), up to 3 months vs day 0): did not increase
Appearance ([1]; Initial, 0 month): White powder
Content (%) ([1]; Initial, 0 month): 101.6%
Total Impurity (%) ([1]; Initial, 0 month): 0.33%
Compound: CC(C)Oc1ccc(-c2nc(-c3cccc4c3C[C@@H]3CC(=O)N(CCO)[C@H]43)no2)cc1C#N [Crystal Form A]

clearance [2]: 46.3 mL/min/kg
bioavailability ([2]; read-out: Bioavailability F (%)): 41.6%
AUC ([2]; read-out: Concentration Integration AUC): 1.12 µM·h
half-life ([2]; read-out: Half-life T1/2 (converted)): 5.24 h
Compound: CC(C)Oc1ccc(-c2nc(-c3cccc4c3CC[C@@H]4NCCO)no2)cc1C#N [Ozanimod, reference compound]
Percentage of lymphocytes in white blood cells in a unit volume of blood (%) (blood lymphocytes; 4 h): 44.53 ± 3.75 %
Rate of change of lymphocytes in blood after administration (%) (blood lymphocytes; 4 h): −71.79 ± 2.51 %
maximum decreasing rate of the number of blood lymphocytes (blood lymphocytes; 8 h): 84.39%
Percentage of lymphocytes in white blood cells in a unit volume of blood (%) (blood lymphocytes; 8 h): 35.69 ± 2.47^****$ %
Rate of change of lymphocytes in blood after administration (%) (blood lymphocytes; 8 h): −84.39 ± 1.16 %
blood lymphocyte decreasing rate (blood lymphocytes; 24 h): 47.26%
Percentage of lymphocytes in white blood cells in a unit volume of blood (%) (blood lymphocytes; 24 h): 58.63 ± 2.17%
Rate of change of lymphocytes in blood after administration (%) (blood lymphocytes; 24 h): −47.26 ± 4.34 %
Percentage of lymphocytes in white blood cells in a unit volume of blood (%) (blood lymphocytes; −0.5 h (before administration)): 58.67 ± 1.61%
Injury area (cm^2) [3, 7]: 4.76 ± 0.33 cm^2
Ulcer area (cm^2) [3, 7]: 1.12 ± 0.31 cm^2
Injury area (cm^2) [3, 8]: 4.60 ± 0.71 cm^2
Ulcer area (cm^2) [3, 8]: 1.36 ± 0.48 cm^2
Inflammation score ([3]; 0.3 mg/kg): 3.71 ± 0.42
Total injury score ([3]; 0.3 mg/kg): 6.29 ± 0.75
Ulcer score ([3]; 0.3 mg/kg): 2.57 ± 0.37
Inflammation score ([3]; 1.0 mg/kg): 3.43 ± 0.30
Total injury score ([3]; 1.0 mg/kg): 6.00 ± 0.58
Ulcer score ([3]; 1.0 mg/kg): 2.57 ± 0.30
